Here are results for 24 compounds from patent publication US8993632B2, “Inhibitors of the 11-beta-hydroxysteroid dehydrogenase type 1 enzyme” (AbbVie Inc., priority 2005, dated 2015).

Assay [1] concerns the target T1, truncated human 11β-HSD-1 enzyme (24-287AA) (Homo sapiens, UniProt P28845).
T1 construct: truncated human 11β-HSD-1 enzyme (24-287AA); made in house; host or cells: E. coli (crude lysate)
Nature of the assay: 11β-HSD-1 enzymatic Scintillation Proximity Assay (SPA). The class given is biochemical. The procedure: (§1) The reaction was stopped by adding a non-specific 11β-HSD inhibitor, 18β-glycyrrhetinic acid. The tritiated cortisol was captured by a mixture of an anti-cortisol monoclonal antibody and SPA beads coated with anti-mouse antibodies. The reaction plate was shaken at room temperature and the radioactivity bound to SPA beads was then measured on a β-scintillation counter. The 11-βHSD-1 assay was carried out in 96-well microtiter plates in a total volume of 220 μl. […] In order to drive the reaction in the forward direction, 1 mM G-6-P was also added. Solid compound was dissolved in DMSO to make a 10 mM stock followed by a subsequent 10-fold dilution with 3% DMSO in Tris/EDTA buffer (pH 7.4). […] Reactions were initiated by the addition of 10 μl of 0.1 mg/ml E. coli lysates overexpressing 11β-HSD-1 enzyme. After shaking and incubating plates for 30 minutes at room temperature, reactions were stopped by adding 10 μl of 1 mM glycyrrhetinic acid. The product, tritiated cortisol, was captured by adding 10 μl of […] monoclonal anti-cortisol antibodies and 100 μl SPA beads coated with anti-mouse antibodies. After shaking for 30 minutes, plates were read on a liquid scintillation counter Topcount. Percent inhibition was calculated based on the background and the maximal signal. Wells that contained substrate without compound or enzyme were used as the background, while the wells that contained substrate and enzyme without any compound were considered as maximal signal. Percent of inhibition of each compound was calculated relative to the maximal signal and IC50 curves were generated. This assay was applied to 11β-HSD-2 as well, whereby tritiated cortisol and NAD^+ were used as substrate and cofactor, respectively.
Background: SPA uses beads or plates that emit light when radiolabelled molecules are held near them.

The next assay deals with T2, human 11-β-HSD-2 (Homo sapiens, UniProt P80365).
T2 sequence (P80365 1-405): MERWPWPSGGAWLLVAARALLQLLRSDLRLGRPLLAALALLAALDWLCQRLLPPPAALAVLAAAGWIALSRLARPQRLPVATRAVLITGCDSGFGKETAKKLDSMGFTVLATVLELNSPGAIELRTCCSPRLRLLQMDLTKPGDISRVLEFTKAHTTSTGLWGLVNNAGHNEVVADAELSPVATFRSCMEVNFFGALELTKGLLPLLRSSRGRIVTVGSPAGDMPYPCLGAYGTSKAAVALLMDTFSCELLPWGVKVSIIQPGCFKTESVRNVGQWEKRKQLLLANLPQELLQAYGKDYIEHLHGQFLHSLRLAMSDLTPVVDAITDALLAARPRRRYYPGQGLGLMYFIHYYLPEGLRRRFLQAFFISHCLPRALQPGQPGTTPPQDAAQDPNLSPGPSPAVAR
Nature of the assay: 11β-HSD-2 Scintillation Proximity Assay (tritiated cortisol, NAD+). The settings on record: human enzyme, SPA. It counts as biochemical. How it is done:
as §1

T1 sequence (P28845 24-287): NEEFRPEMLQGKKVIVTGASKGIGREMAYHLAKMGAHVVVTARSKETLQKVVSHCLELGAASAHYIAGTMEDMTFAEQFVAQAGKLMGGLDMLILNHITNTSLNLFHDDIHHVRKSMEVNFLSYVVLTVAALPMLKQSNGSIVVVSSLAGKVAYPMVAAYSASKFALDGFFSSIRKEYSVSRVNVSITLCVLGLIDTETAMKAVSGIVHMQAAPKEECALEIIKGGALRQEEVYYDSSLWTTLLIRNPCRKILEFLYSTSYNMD

Regarding `Cc1ccccc1CN1CCC(C)(C(=O)N[C@@H]2[C@@H]3C[C@@H]4C[C@H]2C[C@@](C(N)=O)(C4)C3)C1=O` (stereo partly drawn) [CC], the IC50 in assay [1] is 23 nM; against human 11-β-HSD-2 it was 12000 nM. For `NC(=O)[C@]12C[C@@H]3C[C@H](C1)[C@@H](NC(=O)C1(c4ccccc4)CCCC1)[C@@H](C3)C2` [Compound K, E-4-{[(1-phenylcyclopentyl)carbonyl]amino}adamantane-1-carboxamide] the same measures were 43 nM and 16000 nM. The matching figures for `NC(=O)[C@]12C[C@@H]3C[C@H](C1)[C@@H](NC(=O)C1(c4cccc(F)c4)CCCC1)[C@@H](C3)C2` [Compound L, E-4-({[1-(3-fluorophenyl)cyclopentyl]carbonyl}amino)adamantane-1-carboxamide]: 25 nM and 16000 nM.

Turning to `NC(=O)[C@]12C[C@@H]3C[C@H](C1)[C@@H](NC(=O)C1(c4ccc(F)cc4Cl)CCCC1)[C@@H](C3)C2` [Compound M, E-4-({[1-(2-chloro-4-fluorophenyl)cyclopentyl]carbonyl}amino)adamantane-1-carboxamide], the IC50 in assay [1] was 30 nM; against human 11-β-HSD-2, above 30000 nM. Consider `CC(C)(C(=O)N[C@@H]1[C@@H]2C[C@@H]3C[C@H]1C[C@@](C(N)=O)(C3)C2)c1ccc(-c2ccncc2)cc1` [Compound T, E-4-{[2-methyl-2-(4-pyridin-4-ylphenyl)propanoyl]amino}adamantane-1-carboxamide], for which the IC50 in assay [1] was 31 nM; at human 11-β-HSD-2 it was above 30000 nM. The matching figures for `CC1(C(=O)N[C@@H]2[C@@H]3C[C@@H]4C[C@H]2C[C@@](C(N)=O)(C4)C3)CCN(Cc2ccccc2Cl)C1=O` (stereo partly drawn) [DD]: 23 nM and 6300 nM. The matching figures for `Cn1cc(-c2ccc(C(C)(C)C(=O)N[C@@H]3[C@@H]4C[C@@H]5C[C@H]3C[C@@](C(N)=O)(C5)C4)cc2)cn1` [FF, E-4-({2-methyl-2-[4-(1-methyl-1H-pyrazol-4-yl)phenyl]propanoyl}amino)adamantane-1-carboxamide]: 28 nM and above 100000 nM.

On to `NC(=O)[C@]12C[C@@H]3C[C@H](C1)[C@@H](NC(=O)C1(c4ccc(Cl)cc4)CCCCC1)[C@@H](C3)C2` [G, E-4-({[1-(4-chlorophenyl)cyclohexyl]carbonyl}amino)adamantane-1-carboxamide], for which the IC50 in assay [1] turned out to be 59 nM; against human 11-β-HSD-2, 7400 nM. The matching figures for `CC(C)(C(=O)N[C@@H]1[C@@H]2C[C@@H]3C[C@H]1C[C@@](C(N)=O)(C3)C2)c1cccc(Br)c1` [GG, E-4-{[2-(3-bromophenyl)-2-methylpropanoyl]amino}adamantane-1-carboxamide]: 17 nM and 9300 nM. For `NC(=O)[C@]12C[C@@H]3C[C@H](C1)[C@@H](NC(=O)C1(c4ccc(Cl)cc4)CC1)[C@@H](C3)C2` [H, E-4-({[1-(4-chlorophenyl)cyclopropyl]carbonyl}amino)adamantane-1-carboxamide] the same measures were 33 nM and above 30000 nM. For `Cc1noc(C)c1-c1ccc(C(C)(C)C(=O)N[C@@H]2[C@@H]3C[C@@H]4C[C@H]2C[C@@](C(N)=O)(C4)C3)cc1` [HH, E-4-({2-[4-(3,5-dimethylisoxazol-4-yl)phenyl]-2-methylpropanoyl}amino)adamantane-1-carboxamide] the same measures were 44 nM and 40000 nM. Compound `NC(=O)[C@]12C[C@@H]3C[C@H](C1)[C@@H](NC(=O)C1(c4ccc(Cl)cc4)CCCC1)[C@@H](C3)C2` [I, E-4-({[1-(4-chlorophenyl)cyclopentyl]carbonyl}amino)adamantane-1-carboxamide] came in with an IC50 against human 11-β-HSD-2 of 12000 nM. Consider `CC(C)(C(=O)N[C@@H]1[C@@H]2C[C@@H]3C[C@H]1C[C@@](C(N)=O)(C3)C2)c1ccc(-c2cccnc2)cc1` [II, E-4-{[2-methyl-2-(4-pyridin-3-ylphenyl)propanoyl]amino}adamantane-1-carboxamide], for which the IC50 on human 11-β-HSD-2 was 44000 nM. For `CC(C)(C(=O)N[C@@H]1[C@@H]2C[C@@H]3C[C@H]1C[C@@](C(N)=O)(C3)C2)c1ccc(Cl)cc1` [J, E-4-{[2-(4-chlorophenyl)-2-methylpropanoyl]amino}adamantane-1-carboxamide], the IC50 in assay [1] was found to be 33 nM.

Turning to `CC(C)(C(=O)N[C@@H]1[C@@H]2C[C@@H]3C[C@H]1C[C@@](C(=O)NCc1ccc(C(=O)O)cc1)(C3)C2)c1cccs1` [JJ, 4-{[({(E)-4-[(2-methyl-2-thien-2-ylpropanoyl)amino]-1-adamantyl}carbonyl)amino]methyl}benzoic acid], the IC50 stood at 95 nM in assay [1] and 60000 nM on human 11-β-HSD-2. As for `NC(=O)[C@]12C[C@@H]3C[C@H](C1)[C@@H](NC(=O)C1(c4ccc(F)cc4)CCCC1)[C@@H](C3)C2` [N, E-4-({[1-(4-fluorophenyl)cyclopentyl]carbonyl}amino)adamantane-1-carboxamide], the IC50 in assay [1] was 31 nM; against human 11-β-HSD-2, above 30000 nM. The matching figures for `NC(=O)[C@]12C[C@@H]3C[C@H](C1)[C@@H](NC(=O)C1(c4ccccc4F)CCCC1)[C@@H](C3)C2` [O, E-4-({[1-(2-fluorophenyl)cyclopentyl]carbonyl}amino)adamantane-1-carboxamide]: 38 nM and 16000 nM.

Turning to `CC1(C(=O)N[C@@H]2[C@@H]3C[C@@H]4C[C@H]2C[C@@](C(N)=O)(C4)C3)CCCCC1` [P, E-4-{[(1-methylcyclohexyl)carbonyl]amino}adamantane-1-carboxamide], the results for the IC50 (in assay [1]; against human 11-β-HSD-2) were 38 nM and above 30000 nM, respectively.

As to `NC(=O)[C@]12C[C@@H]3C[C@H](C1)[C@@H](NC(=O)C1(c4ccc(Cl)cc4Cl)CC1)[C@@H](C3)C2` [Q, E-4-({[1-(2,4-dichlorophenyl)cyclopropyl]carbonyl}amino)adamantane-1-carboxamide], the results for the IC50 (in assay [1]; on human 11-β-HSD-2) were 36 nM and 16000 nM, respectively.

`COc1ccc(C2(C(=O)N[C@@H]3[C@@H]4C[C@@H]5C[C@H]3C[C@@](C(N)=O)(C5)C4)CC2)cc1` [R, E-4-({[1-(4-methoxyphenyl)cyclopropyl]carbonyl}amino)adamantane-1-carboxamide]: the IC50 in assay [1] amounted to 27 nM; against human 11-β-HSD-2, 21000 nM. The matching figures for `Cc1ccc(C2(C(=O)N[C@@H]3[C@@H]4C[C@@H]5C[C@H]3C[C@@](C(N)=O)(C5)C4)CC2)cc1` [S, E-4-({[1-(4-methylphenyl)cyclopropyl]carbonyl}amino)adamantane-1-carboxamide]: 37 nM and 15000 nM.

For `CC(C)(C(=O)N[C@@H]1[C@@H]2C[C@@H]3C[C@H]1C[C@@](C(N)=O)(C3)C2)c1cccs1` [U, E-4-[(2-methyl-2-thien-2-ylpropanoyl)amino]adamantane-1-carboxamide], the results for the IC50 (in assay [1]; on human 11-β-HSD-2) were 16 nM and 12000 nM, respectively. The matching figures for `CC(C)(C(=O)N[C@@H]1[C@@H]2C[C@@H]3C[C@H]1C[C@@](C(N)=O)(C3)C2)c1ccsc1` [V, E-4-[(2-methyl-2-thien-3-ylpropanoyl)amino]adamantane-1-carboxamide]: 19 nM and 15000 nM.

With `CC(C)(C(=O)N[C@@H]1[C@@H]2C[C@@H]3C[C@H]1C[C@@](C(N)=O)(C3)C2)c1ccc(C(F)(F)F)cn1` [W, E-4-({2-methyl-2-[5-(trifluoromethyl)pyridin-2-yl]propanoyl}amino)adamantane-1-carboxamide], the IC50 in assay [1] is 23 nM; against human 11-β-HSD-2, above 30000 nM.

A word on the IC50: it is the concentration that inhibits the measured activity by half. Read a high IC50 as lower potency.
